One series has as its system uninfected H9 cells. The series can be described thus: Toxicity to mock-infected H9 cells. The class given is cell-based. To be noted: human, mock-infected (uninfected) H9 T-cells.
The test system of another series is HIV-1 IIIB. The series can be described thus: HIV-1 infectivity assay against non-drug-resistant strain in H9 lymphocytes. The class given is cell-based. To be noted: for anti-HIV activity in words: HIV-1 replication in H9 lymphocytes; for EC50: concentration that inhibits HIV-1IIIB replication by 50%: H9 lymphocytes, p24, day 6 PI.

The record followed here is publication PMC2949462 (Bioorganic & medicinal chemistry, 2010).

“Also recorded” adds a separate entry of the source. Some results are limits rather than exact numbers.

As usually defined, the IC50 is the concentration needed to halve the response being measured. A low value points to greater potency in that assay. `Cc1cc(=O)oc2c3c(ccc12)OC(C)(C)[C@H](OC(=O)[C@]12CC[C@](C)(C(=O)O1)C2(C)C)[C@@H]3OC(=O)[C@]12CC[C@](C)(C(=O)O1)C2(C)C` [Compound 2] registered an IC50 at 6 days in the series with uninfected H9 cells of more than 39.2 µM.

For the molecule `Cc1cc(=O)oc2c3c(ccc12)O[C@H](C)[C@@H](OC(=O)[C@]12CC[C@](C)(C(=O)O1)C2(C)C)[C@H]3OC(=O)[C@]12CC[C@](C)(C(=O)O1)C2(C)C` [Compound 5b, (2′R,3′R,4′S)-2′,4-Dimethyl-3′,4′-di-O-(−)-camphanoyl-(+)-cis-khellactone], in the series on HIV-1 IIIB, the “anti-HIV activity in words” value is “low potency”.

For `Cc1cc(=O)oc2c3c(ccc12)S(=O)(=O)[C@H](C)[C@H](OC(=O)[C@]12CC[C@](C)(C(=O)O1)C2(C)C)[C@@H]3OC(=O)[C@]12CC[C@](C)(C(=O)O1)C2(C)C` [Compound 12, (8R,9R,10R)-1′-Sulfone-2′,4-dimethyl-3′,4′-di-O-(−)-camphanoyl-(+)-cis-khellactone], the “EC50: concentration that inhibits HIV-1IIIB replication by 50%” value in the series on HIV-1 IIIB is “no suppression”.

With `Cc1cc(=O)oc2c3c(ccc12)O[C@H](C)[C@H](OC(=O)[C@]12CC[C@](C)(C(=O)O1)C2(C)C)[C@@H]3OC(=O)[C@]12CC[C@](C)(C(=O)O1)C2(C)C` [Compound 6, (2′R,3′S,4′R)-2′,4-Dimethyl-3′,4′-di-O-(−)-camphanoyl-(+)-cis-khellactone], in the series on HIV-1 IIIB, the “EC50: concentration that inhibits HIV-1IIIB replication by 50%” value is “no suppression” and the “anti-HIV activity in words” value was “inactive at the test concentrations; also recorded: much weaker inhibitory activity”.

`Cc1cc(=O)oc2c3c(ccc12)S[C@H](C)[C@H](OC(=O)[C@]12CC[C@](C)(C(=O)O1)C2(C)C)[C@@H]3OC(=O)[C@]12CC[C@](C)(C(=O)O1)C2(C)C` [Compound 8, (2′R,3′R,4′R)-1′-Thia-2′,4-Dimethyl-3′,4′-di-O-(−)-camphanoyl-(+)-cis-khellactone]: in the series on HIV-1 IIIB, the “anti-HIV activity in words” value is listed as “much weaker inhibitory activity”.

Regarding `Cc1cc(=O)oc2c3c(ccc12)S[C@H](C)[C@@H](OC(=O)[C@]12CC[C@](C)(C(=O)O1)C2(C)C)[C@H]3OC(=O)[C@]12CC[C@](C)(C(=O)O1)C2(C)C` [Compound 7b, (2′R,3′S,4′S) -1′-Thia-2′,4-dimethyl-3′,4′-di-O-(−)-camphanoyl-(+)-cis-khellactone], in the series with HIV-1 IIIB, the “EC50: concentration that inhibits HIV-1IIIB replication by 50%” value was “no suppression” and the “anti-HIV activity in words” value is “inactivity”.

`Cc1cc(=O)oc2c3c(ccc12)[S+]([O-])[C@@H](C)C(OC(=O)C12CCC(C)(C(=O)O1)C2(C)C)C3OC(=O)C12CCC(C)(C(=O)O1)C2(C)C` (stereo partly drawn) [9a+9b, 1′-Sulfoxide-2′,4-dimethyl-3′,4′-di-O-(−)-camphanoyl-(+)-cis-khellactone]: the “EC50: concentration that inhibits HIV-1IIIB replication by 50%” value with HIV-1 IIIB is “no suppression”.
